In patent US20260092071A1, “COMPOUNDS AND COMPOSITIONS AS SMARCA2/4 DEGRADERS AND USES THEREOF” (REGENTS OF THE UNIVERSITY OF MICHIGAN, priority 2022, published 2026):
Like-named read-outs stand apart in the source and are kept apart here.

Tests used:
SMARCA4 = SMARCA4 (Homo sapiens, UniProt P51532); assay: HiBiT assay for protein degradation, Hela SMARCA4-HiBiT cells (A series); format: cell-based; set-up: fuse HiBiT to the carboxy terminus of SMARCA2 (Promega CS302365) or SMARCA4 (Promega CS3023225); host or cells: HeLa (CRISPR/Cas9 HiBiT knock-in); settings: for DC50: read-out: SMARC A4 Hela HiBit DC50
SMARCA4, sequence (P51532 whole entry): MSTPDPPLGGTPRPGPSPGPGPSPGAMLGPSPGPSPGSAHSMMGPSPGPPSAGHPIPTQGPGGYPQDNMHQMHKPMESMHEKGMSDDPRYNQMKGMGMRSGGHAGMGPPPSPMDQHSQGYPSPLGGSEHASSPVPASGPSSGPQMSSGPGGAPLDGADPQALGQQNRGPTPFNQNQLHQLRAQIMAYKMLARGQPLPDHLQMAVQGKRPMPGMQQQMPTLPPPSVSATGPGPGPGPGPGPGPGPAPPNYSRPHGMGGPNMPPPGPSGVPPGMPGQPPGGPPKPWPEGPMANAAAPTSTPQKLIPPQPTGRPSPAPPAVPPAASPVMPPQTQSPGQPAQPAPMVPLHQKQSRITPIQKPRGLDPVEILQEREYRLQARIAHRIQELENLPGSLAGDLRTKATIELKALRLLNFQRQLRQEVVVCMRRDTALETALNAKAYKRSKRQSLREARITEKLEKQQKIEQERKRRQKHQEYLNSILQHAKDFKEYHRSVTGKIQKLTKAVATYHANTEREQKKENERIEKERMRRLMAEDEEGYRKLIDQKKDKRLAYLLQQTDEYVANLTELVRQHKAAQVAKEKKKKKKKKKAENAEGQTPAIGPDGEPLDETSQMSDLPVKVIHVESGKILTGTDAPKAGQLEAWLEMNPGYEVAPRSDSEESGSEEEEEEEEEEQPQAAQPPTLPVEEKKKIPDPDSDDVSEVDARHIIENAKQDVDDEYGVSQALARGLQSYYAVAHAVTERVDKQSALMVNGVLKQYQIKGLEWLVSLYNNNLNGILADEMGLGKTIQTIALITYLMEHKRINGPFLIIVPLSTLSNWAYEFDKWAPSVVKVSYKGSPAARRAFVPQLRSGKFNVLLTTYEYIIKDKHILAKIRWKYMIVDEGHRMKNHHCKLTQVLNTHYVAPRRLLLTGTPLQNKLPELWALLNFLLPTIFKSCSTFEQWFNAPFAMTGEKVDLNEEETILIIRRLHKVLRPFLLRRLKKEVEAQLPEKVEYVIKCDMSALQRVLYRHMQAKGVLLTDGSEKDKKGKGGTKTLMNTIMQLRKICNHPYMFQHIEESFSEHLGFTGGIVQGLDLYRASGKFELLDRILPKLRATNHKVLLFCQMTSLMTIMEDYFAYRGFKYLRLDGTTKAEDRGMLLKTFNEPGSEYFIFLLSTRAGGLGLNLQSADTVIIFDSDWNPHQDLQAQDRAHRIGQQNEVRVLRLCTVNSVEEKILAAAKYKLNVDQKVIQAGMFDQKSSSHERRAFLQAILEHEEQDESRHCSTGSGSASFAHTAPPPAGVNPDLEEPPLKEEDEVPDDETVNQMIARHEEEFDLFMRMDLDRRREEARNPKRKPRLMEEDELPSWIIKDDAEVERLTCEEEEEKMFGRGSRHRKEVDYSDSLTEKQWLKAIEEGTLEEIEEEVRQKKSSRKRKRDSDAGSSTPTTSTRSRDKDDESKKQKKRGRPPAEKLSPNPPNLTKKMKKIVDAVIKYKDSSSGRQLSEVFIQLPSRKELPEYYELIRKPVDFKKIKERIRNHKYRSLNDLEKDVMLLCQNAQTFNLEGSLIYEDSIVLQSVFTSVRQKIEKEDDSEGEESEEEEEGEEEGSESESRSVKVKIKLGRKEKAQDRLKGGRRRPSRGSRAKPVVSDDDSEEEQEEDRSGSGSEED
Procedure, shortened: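 SMARCA4 degradation was measured in HeLa cells in which HiBiT had been knocked into the SMARCA4 carboxy terminus via CRISPR/Cas9 (Promega CS3023225). Cells were maintained in DMEM with FBS and penicillin-streptomycin. At the end of treatment, SMARCA4 levels were read by lytic HiBiT luminescence (Nano-Glo®, Promega N3050), and data were analyzed with GraphPad Prism.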

SMARCA2 = SMARCA2 (Homo sapiens, UniProt P51531); assay: HiBiT assay for protein degradation, Hela SMARCA2-HiBiT cells (A series); format: cell-based; set-up: Hela cells were genetically modified via CRISPR/Cas9 to fuse HiBiT to the carboxy terminus of SMARCA2; host or cells: HeLa (CRISPR/Cas9 HiBiT knock-in); settings: for DC50: read-out: SMARC A2 Hela HiBit DC50; for Dmax: read-out: SMARC A2 Hela HiBit Dmax (%);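 for SMARC A2 Hela HiBit Dmax (%): 24 h compound treatment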
SMARCA2, sequence (P51531 whole entry): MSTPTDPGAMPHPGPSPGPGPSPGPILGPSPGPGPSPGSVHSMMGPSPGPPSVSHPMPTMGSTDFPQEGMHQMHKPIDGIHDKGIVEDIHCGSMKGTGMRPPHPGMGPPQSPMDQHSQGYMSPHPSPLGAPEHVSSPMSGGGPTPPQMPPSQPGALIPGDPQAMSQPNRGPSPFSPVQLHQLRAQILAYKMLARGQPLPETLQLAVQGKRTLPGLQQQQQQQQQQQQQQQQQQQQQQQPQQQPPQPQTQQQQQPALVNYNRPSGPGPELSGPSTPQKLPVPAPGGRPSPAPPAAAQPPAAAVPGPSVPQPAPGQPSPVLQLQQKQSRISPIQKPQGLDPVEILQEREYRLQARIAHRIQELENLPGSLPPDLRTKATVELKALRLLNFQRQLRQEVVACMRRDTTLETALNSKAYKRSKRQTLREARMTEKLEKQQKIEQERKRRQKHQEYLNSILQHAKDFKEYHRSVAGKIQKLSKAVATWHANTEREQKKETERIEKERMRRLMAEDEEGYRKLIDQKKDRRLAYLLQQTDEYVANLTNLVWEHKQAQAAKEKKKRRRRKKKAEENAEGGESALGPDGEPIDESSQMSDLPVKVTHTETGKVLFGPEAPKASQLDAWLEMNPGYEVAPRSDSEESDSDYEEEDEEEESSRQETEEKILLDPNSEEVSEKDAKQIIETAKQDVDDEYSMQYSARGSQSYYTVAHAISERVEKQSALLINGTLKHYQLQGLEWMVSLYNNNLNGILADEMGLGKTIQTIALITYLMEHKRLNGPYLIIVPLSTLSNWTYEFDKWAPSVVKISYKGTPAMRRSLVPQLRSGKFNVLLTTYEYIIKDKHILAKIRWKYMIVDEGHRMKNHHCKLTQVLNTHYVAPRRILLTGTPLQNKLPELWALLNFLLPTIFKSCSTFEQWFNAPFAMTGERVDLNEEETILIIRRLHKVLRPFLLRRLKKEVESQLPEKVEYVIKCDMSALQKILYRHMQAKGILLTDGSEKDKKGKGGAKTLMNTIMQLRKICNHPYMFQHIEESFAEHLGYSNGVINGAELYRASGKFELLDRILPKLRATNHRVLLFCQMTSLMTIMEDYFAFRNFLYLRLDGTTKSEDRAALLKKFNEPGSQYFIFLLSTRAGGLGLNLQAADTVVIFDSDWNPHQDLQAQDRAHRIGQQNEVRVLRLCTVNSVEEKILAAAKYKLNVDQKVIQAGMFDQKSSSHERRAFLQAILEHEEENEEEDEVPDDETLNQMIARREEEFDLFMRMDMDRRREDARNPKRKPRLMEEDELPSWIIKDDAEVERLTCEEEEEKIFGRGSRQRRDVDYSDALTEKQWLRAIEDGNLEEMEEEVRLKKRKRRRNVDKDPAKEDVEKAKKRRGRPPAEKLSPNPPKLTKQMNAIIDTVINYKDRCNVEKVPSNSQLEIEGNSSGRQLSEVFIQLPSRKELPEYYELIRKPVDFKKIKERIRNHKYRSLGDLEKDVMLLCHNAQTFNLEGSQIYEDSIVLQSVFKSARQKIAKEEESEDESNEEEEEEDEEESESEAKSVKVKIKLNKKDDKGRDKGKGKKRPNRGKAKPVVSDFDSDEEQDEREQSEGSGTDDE
Procedure, shortened: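 SMARCA2 degradation was measured in HeLa cells whose endogenous SMARCA2 carries a carboxy-terminal HiBiT tag introduced by CRISPR/Cas9 (Promega CS302365). Cells were maintained in DMEM with FBS and penicillin-streptomycin. SMARCA2 levels were read at the end of the experiment by Nano-Glo® HiBiT lytic luminescence (Promega N3050) and analyzed in GraphPad Prism.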

[1] = Hela SMARCA4-HiBiT cells, 24 hours treatment
[2] = Hela SMARCA4-HiBiT cells, 24 hours treatment, read-out: SMARC A4 Hela HiBit Dmax
[3] = Hela SMARCA2-HiBiT cells, 24 hours treatment
[4] = Hela SMARCA4-HiBiT cells, 24 hours treatment, read-out: SMARC A4 Hela HiBit Dmax(%)

SMILES	DC50 (SMARCA4; [1]) [µM]	Dmax (SMARCA4; [2]) [%]	DC50 (SMARCA2; [3]) [µM]	Dmax (SMARCA2; [3]) [%]	other results
Cc1ncsc1-c1ccc([C@H](CN2CC(C)(F)C2)NC(=O)[C@@H]2C[C@@H](O)CN2C(=O)[C@@H](n2cc([C@H]3CC[C@H](CN4CCC(c5ccc6c(c5)-n5c(nc(=O)c7c(Cl)cccc75)C6(C)C)CC4)CC3)nn2)C(C)(C)C)cc1 [Compound A93, (2S,4R)-1-((S)-2-(4-((1r,4S)-4-((4-(4-chloro-7,7-dimethyl-5-oxo-5,7-dihydroindolo[1,2-a]quinazolin-10-yl)piperidin-1-yl)methyl)cyclohexyl)-1H-1,2,3-triazol-1-yl)-3,3-dimethylbutanoyl)-N—((R)-2-(3-fluoro-3-methylazetidin-1-yl)-1-(4-(4-methylthiazol-5-yl)phenyl)ethyl)-4-hydroxypyrrolidine-2-carboxamide]	> 1	< 50	< 0.01	> 90	
COCCOCCOCCOC[C@H](NC(=O)[C@@H]1C[C@@H](O)CN1C(=O)[C@@H](n1cc([C@H]2CC[C@H](CN3CCC(c4ccc5c(c4)-n4c(nc(=O)c6c(Cl)cccc64)C5(C)C)CC3)CC2)nn1)C(C)(C)C)c1ccc(-c2scnc2C)cc1 [Compound A150, (2S,4R)-1-((S)-2-(4-((1r,4S)-4-((4-(4-chloro-7,7-dimethyl-5-oxo-5,7-dihydroindolo[1,2-a]quinazolin-10-yl)piperidin-1-yl)methyl)cyclohexyl)-1H-1,2,3-triazol-1-yl)-3,3-dimethylbutanoyl)-4-hydroxy-N—((R)-13-(4-(4-methylthiazol-5-yl)phenyl)-2,5,8,11-tetraoxatridecan-13-yl)pyrrolidine-2-carboxamide]	> 1	< 50	< 0.01	> 90	
Cc1ncsc1-c1ccc([C@H](CN2CCN(C)CC2)NC(=O)[C@@H]2C[C@@H](O)CN2C(=O)[C@@H](n2cc([C@H]3CC[C@H](CN4CCC(c5ccc6c(c5)-n5c(nc(=O)c7c(Cl)cccc75)C65CCCCC5)CC4)CC3)nn2)C(C)(C)C)cc1 [Compound A85, (2S,4R)-1-((S)-2-(4-((1r,4S)-4-((4-(4′-chloro-5′-oxo-5′H-spiro[cyclohexane-1,7′-indolo[1,2-a]quinazolin]-10′-yl)piperidin-1-yl)methyl)cyclohexyl)-1H-1,2,3-triazol-1-yl)-3,3-dimethylbutanoyl)-4-hydroxy-N—((R)-2-(4-methylpiperazin-1-yl)-1-(4-(4-methylthiazol-5-yl)phenyl)ethyl)pyrrolidine-2-carboxamide]	0.01 to 0.1	50 to 69	< 0.01	> 90	
Cc1ncsc1-c1ccc([C@H](C)NC(=O)[C@@H]2C[C@@H](O)CN2C(=O)[C@@H](NC(=O)C23CCC(CN4CCC(c5ccc6c(c5)-n5c(nc(=O)c7c(Br)cccc75)C65CCCCC5)CC4)(CC2)CC3)C(C)(C)C)cc1 [Compound A29]					Dmax (SMARCA4; [4]): < 50%; DC50 (SMARCA4): > 1 µM; Dmax (SMARCA2; HeLa): 70 to 90%; DC50 (SMARCA2): < 0.1 µM
Cc1ncsc1-c1ccc(CNC(=O)[C@@H]2C[C@@H](O)CN2C(=O)[C@@H](n2cc([C@H]3CC[C@H](CN4CCC(c5ccc6c(c5)-n5c(nc(=O)c7c(Br)cccc75)C65CCCCC5)CC4)CC3)nn2)C(C)(C)C)cc1 [Compound A67, (2S,4R)-1-((S)-2-(4-((1r,4S)-4-((4-(4′-bromo-5′-oxo-5′H-spiro[cyclohexane-1,7′-indolo[1,2-a]quinazolin]-10′-yl)piperidin-1-yl)methyl)cyclohexyl)-1H-1,2,3-triazol-1-yl)-3,3-dimethylbutanoyl)-4-hydroxy-N-(4-(4-methylthiazol-5-yl)benzyl)pyrrolidine-2-carboxamide]	< 0.1		< 0.1	> 90	Dmax (SMARCA4; [4]): 70 to 90%
Cc1ncsc1-c1ccc([C@H](C)NC(=O)[C@@H]2C[C@@H](O)CN2C(=O)[C@@H](n2cc(CCCCCN3CCC(c4ccc5c(c4)-n4c(nc(=O)c6c(Br)cccc64)C54CCCCC4)CC3)nn2)C(C)(C)C)cc1 [Compound A46, (2S,4R)-1-((S)-2-(4-(5-(4-(4′-bromo-5′-oxo-5′H-spiro[cyclohexane-1,7′-indolo[1,2-a]quinazolin]-10′-yl)piperidin-1-yl)pentyl)-1H-1,2,3-triazol-1-yl)-3,3-dimethylbutanoyl)-4-hydroxy-N—((S)-1-(4-(4-methylthiazol-5-yl)phenyl)ethyl)pyrrolidine-2-carboxamide]					SMARC A4 Hela HiBit Dmax(%) (SMARCA4; [1]): B (B (70-90% degradation)); DC50 (SMARCA4): < 0.1 µM; SMARC A2 Hela HiBit Dmax (%) (SMARCA2; [3]): A (A (>90% degradation)); DC50 (SMARCA2): < 0.1 µM
Cc1ncsc1-c1ccc([C@H](CCCCCN2CCC(c3ccc4c(c3)C3(CCCCC3)c3nc(=O)c5c(Cl)cccc5n3-4)CC2)NC(=O)[C@@H]2C[C@@H](O)CN2C(=O)[C@@H](NC(=O)C2(F)CC2)C(C)(C)C)cc1 [Compound A3, (2S,4R)—N—((S)-6-(4-(4′-chloro-5′-oxo-5′H-spiro[cyclohexane-1,7′-indolo[1,2-a]quinazolin]-9′-yl)piperidin-1-yl)-1-(4-(4-methylthiazol-5-yl)phenyl)hexyl)-1-((S)-2-(1-fluorocyclopropane-1-carboxamido)-3,3-dimethylbutanoyl)-4-hydroxypyrrolidine-2-carboxamide]	< 0.1		< 0.1		Dmax (SMARCA4; HeLa, read-out: SMARC A4 Hela HiBit Dmax(%)): > 90%; Dmax (SMARCA2; HeLa): > 90%
Cc1ncsc1-c1ccc([C@H](C)NC(=O)[C@@H]2C[C@@H](O)CN2C(=O)[C@H](C2CCOCC2)n2cc([C@H]3CC[C@H](CN4CCC(c5ccc6c(c5)-n5c(nc(=O)c7c(Br)cccc75)C65CCCCC5)CC4)CC3)nn2)cc1 [Compound A121, (2S,4R)-1-((S)-2-(4-((1r,4S)-4-((4-(4′-bromo-5′-oxo-5′H-spiro[cyclohexane-1,7′-indolo[1,2-a]quinazolin]-10′-yl)piperidin-1-yl)methyl)cyclohexyl)-1H-1,2,3-triazol-1-yl)-2-(tetrahydro-2H-pyran-4-yl)acetyl)-4-hydroxy-N—((S)-1-(4-(4-methylthiazol-5-yl)phenyl)ethyl)pyrrolidine-2-carboxamide]		70 to 90	< 0.01	> 90	SMARC A4 Hela HiBit DC50(nM) (SMARCA4; [1]): No fit
COCCOCCOCCOCCOC[C@H](NC(=O)[C@@H]1C[C@@H](O)CN1C(=O)[C@@H](n1cc([C@H]2CC[C@H](CN3CCC(c4ccc5c(c4)-n4c(nc(=O)c6c(Cl)cccc64)C5(C)C)CC3)CC2)nn1)C(C)(C)C)c1ccc(-c2scnc2C)cc1 [Compound A151, (2S,4R)-1-((S)-2-(4-((1r,4S)-4-((4-(4-chloro-7,7-dimethyl-5-oxo-5,7-dihydroindolo[1,2-a]quinazolin-10-yl)piperidin-1-yl)methyl)cyclohexyl)-1H-1,2,3-triazol-1-yl)-3,3-dimethylbutanoyl)-4-hydroxy-N—((R)-16-(4-(4-methylthiazol-5-yl)phenyl)-2,5,8,11,14-pentaoxahexadecan-16-yl)pyrrolidine-2-carboxamide]	> 1	< 50	< 0.01	> 90	
Cc1ncsc1-c1ccc([C@H](CO)NC(=O)[C@@H]2C[C@@H](O)CN2C(=O)[C@H](C2CCCCC2)n2cc([C@H]3CC[C@H](CN4CCC(c5ccc6c(c5)-n5c(nc(=O)c7c(Br)cccc75)C65CCCCC5)CC4)CC3)nn2)cc1 [Compound A127]	< 0.01	70 to 90	< 0.01	> 90	
